# Laboratory results from patent US8273756B2, “Use of modified pyrimidine compounds to promote stem cell migration and proliferation” (University of Central Florida Research Foundation, Inc., priority 2002, dated 2012).
# Entries after “also recorded” stand apart in the source; their conditions may differ.
# How the values were obtained:
# [1] = system: endogenous retinal stem cell populations; test: Endogenous retinal stem cell proliferation after intraocular MS-818, BrdU immunostaining; format: in vivo; conditions: rat; intraocular (vitreous cavity) 10 μg/20 μl, one time injection; after three days
# [2] = system: endogenous neural stem cell populations in the brain; test: Endogenous stem cell proliferation in aged rat brain after MS-818 i.p., BrdU immunostaining; format: in vivo; conditions: 3 mg/kg/day i.p. for 5 days
# Description: To investigate the effect of MS-818, a pyrimidine derivative, on stem cell population in vivo, MS-818 (3 mg/kg/day, i.p.) was injected for 5 days into aged (27-month old) male Fisher 344 rats. The same volume of saline was injected into control animals. Bromodeoxyuridine (BrdU) (100 mg/kg/day i.p.) was then injected for 3 days. Twenty-four hours after the last injection, the brains were removed and fixed for immunohistochemical detection of the proliferating cells by immunostaining for BrdU.
compound,measurement,setting,value
"CC1Nc2nc(N3CCCCC3)ncc2C1=O.O=C(O)/C=C\C(=O)O (stereo not shown) [MS-818, 2-piperadino-6-methyl-5-oxo-5,6-dihydro(7H) pyrrolo[2,3-d]pyrimidine maleate]",number of BrdU-positive cells in retina / retinal ciliary marginal zone,[1],dramatic increase; also recorded: clearly increased
same,proliferation and migration of stem cells in the subventricular zone,[2],significant increase not only in the proliferation but also in the migration of stem cells
same,number of BrdU positive cells in SVZ (immunohistochemistry),[2]; vs control without MS-818,increased
same,number of BrdU positive cells in cerebral cortex (immunohistochemistry),[2]; vs control without MS-818,significantly increased
